The subject of test [1] is L1210. The test is described as follows: (§1) Growth inhibition was evaluated for L1210 cells in culture. The class given is functional. The settings on record: Mus musculus, read-out: ID50 (the source's name).
Test [2] relates to L1210. Described as §1. The class given is functional, Mus musculus.

These results are taken from ChEMBL document CHEMBL1122819, “Quinazoline antifolates inhibiting thymidylate synthase: variation of the N10 substituent” (J Med Chem, 1985).

Where only a bound is given, the exact number is not on record here.

One may read the Inhibition as the relative decrease from the control value, in per cent. A low value points to a response near the control.

Regarding `NC(=O)CN(Cc1ccc2nc(N)nc(O)c2c1)c1ccc(C(=O)NC(CCC(=O)O)C(=O)O)cc1` (stereo not given), the IC50 with L1210 [1] is 87 µM.
On the same count and under the same terms, then `Nc1nc(O)c2cc(CN(Cc3cccc(F)c3)c3ccc(C(=O)NC(CCC(=O)O)C(=O)O)cc3)ccc2n1` (stereo not given), with greater than 200 µM; and `N#CCN(Cc1ccc2nc(N)nc(O)c2c1)c1ccc(C(=O)NC(CCC(=O)O)C(=O)O)cc1` (stereo not given), with 5 µM.
The same measure, in the same setting: the figure for `Nc1nc(O)c2cc(CN(Cc3cnc(O)nc3O)c3ccc(C(=O)NC(CCC(=O)O)C(=O)O)cc3)ccc2n1` (stereo not given) is 5 µM; for `Nc1nc(O)c2cc(CN(CCCO)c3ccc(C(=O)NC(CCC(=O)O)C(=O)O)cc3)ccc2n1` (stereo not given) it is 54 µM.
Turning to `Nc1nc(O)c2cc(CN(CC3CC3)c3ccc(C(=O)NC(CCC(=O)O)C(=O)O)cc3)ccc2n1` (stereo not given), the IC50 with L1210 [1] was greater than 100 µM.
`Nc1nc(O)c2cc(CNc3ccc(C(=O)NC(CCC(=O)O)C(=O)O)cc3)ccc2n1` (stereo not given) [DIDEAZAFOLATE]: the IC50 in the test with L1210 [1] is 5 µM.
On the same count and under the same terms, then `Nc1nc(O)c2cc(CN(CCC(=O)O)c3ccc(C(=O)NC(CCC(=O)O)C(=O)O)cc3)ccc2n1` (stereo not given), with greater than 270 µM.
`N#CCCCN(Cc1ccc2nc(N)nc(O)c2c1)c1ccc(C(=O)NC(CCC(=O)O)C(=O)O)cc1` (stereo not given): the IC50 in the test with L1210 [1] is greater than 300 µM. Besides, the Inhibition in the test on L1210 [2] is 10%.
For `C#CCN(Cc1ccc2[nH]c(N)nc(=O)c2c1)c1ccc(C(=O)NC(CCC(=O)O)C(=O)O)cc1` (stereo not given), in the test with L1210 [1], the IC50 was 5 µM.
The same measure, in the same setting: then `Nc1nc(O)c2cc(CN(CC(=O)O)c3ccc(C(=O)NC(CCC(=O)O)C(=O)O)cc3)ccc2n1` (stereo not given), with 27 µM; and `CC(C)N(Cc1ccc2nc(N)nc(O)c2c1)c1ccc(C(=O)NC(CCC(=O)O)C(=O)O)cc1` (stereo not given), with 400 µM; and `Nc1nc(O)c2cc(CN(CC(=O)c3ccccc3)c3ccc(C(=O)NC(CCC(=O)O)C(=O)O)cc3)ccc2n1` (stereo not given), with 100 µM.
Consider `Nc1nc(O)c2cc(CN(CCF)c3ccc(C(=O)NC(CCC(=O)O)C(=O)O)cc3)ccc2n1` (stereo not given), for which the IC50 with L1210 [1] amounted to 16 µM.
